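These data come from cells grown in 96-well plates and exposed to compound for 48 hours at five concentrations. GI50 marks 50% less growth.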 Activity calls are given as the source filed them. Rule as the data show it: active = GI50 up to about 1.1 µM and inactive = higher.
Columns and labels:
Assay in all cases: DTP human tumour cell line panel, 48 h
HCT-116 = system: HCT-116
NCI-H460 = system: NCI-H460
OVCAR-8 = system: OVCAR-8
MOLT-4 = system: MOLT-4
UACC-62 = system: UACC-62
SK-MEL-2 = system: SK-MEL-2
NCI-H23 = system: NCI-H23
SN12C = system: SN12C
LOX IMVI = system: LOX IMVI
NCI-H522 = system: NCI-H522
UACC-257 = system: UACC-257
OVCAR-3 = system: OVCAR-3
OVCAR-4 = system: OVCAR-4
M14 = system: M14
EKVX = system: EKVX
HOP-92 = system: HOP-92
MCF7 = system: MCF7
SW-620 = system: SW-620
CAKI-1 = system: CAKI-1
NCI/ADR-RES = system: NCI/ADR-RES

SMILES | GI50 (HCT-116) | GI50 (NCI-H460) | GI50 (OVCAR-8) | GI50 (MOLT-4) | GI50 (UACC-62) | GI50 (SK-MEL-2) | GI50 (NCI-H23) | GI50 (SN12C) | GI50 (LOX IMVI) | GI50 (NCI-H522) | GI50 (UACC-257) | GI50 (OVCAR-3) | GI50 (OVCAR-4) | GI50 (M14) | GI50 (EKVX) | GI50 (HOP-92) | GI50 (MCF7) | GI50 (SW-620) | GI50 (CAKI-1) | GI50 (NCI/ADR-RES)
O=C1NP23(OCCO2)Oc2ccccc2C3(C(F)(F)F)O1 (centres undefined) | > 100 µM (inactive) | 78.3 µM (inactive) | > 100 µM (inactive) | > 100 µM (inactive) | > 100 µM (inactive) | > 100 µM (inactive) | > 100 µM (inactive) | > 100 µM (inactive) | > 100 µM (inactive) | > 100 µM (inactive) | > 100 µM (inactive) | > 100 µM (inactive) | > 100 µM (inactive) | > 100 µM (inactive) |  |  |  |  |  | 
Cc1nc(O)nc(N/N=C/c2ccc(Cl)cc2)c1C(=O)NC(C)(CO)CO | > 100 µM (inactive) | > 100 µM (inactive) | > 100 µM (inactive) | > 100 µM (inactive) | > 100 µM (inactive) | > 100 µM (inactive) | > 100 µM (inactive) | > 100 µM (inactive) | > 100 µM (inactive) |  | > 100 µM (inactive) | > 100 µM (inactive) | > 100 µM (inactive) | > 100 µM (inactive) | > 100 µM (inactive) | > 100 µM (inactive) | > 100 µM (inactive) | > 100 µM (inactive) | > 100 µM (inactive) | > 100 µM (inactive)
COC1OC2COC(c3ccccc3)OC2C(O)C1OC(=S)c1ccccc1 (centres undefined) |  | 28.6 µM (inactive) | 67.8 µM (inactive) | 70.6 µM (inactive) | 31 µM (inactive) | 53.3 µM (inactive) | 59.7 µM (inactive) | 21.8 µM (inactive) | 0.244 µM (active) |  | 50 µM (inactive) | 34.8 µM (inactive) | 73.6 µM (inactive) | 46.2 µM (inactive) | 19.5 µM (inactive) | > 100 µM (inactive) | 36.3 µM (inactive) | 45.3 µM (inactive) | 24.4 µM (inactive) | 36.6 µM (inactive)
N#CC(OC1OC(COC2OC(CO)C(O)C(O)C2O)C(O)C(O)C1O)c1ccccc1 (centres undefined) | > 225 µM (inactive) | > 225 µM (inactive) | > 225 µM (inactive) | > 225 µM (inactive) | > 225 µM (inactive) | > 225 µM (inactive) | > 225 µM (inactive) | > 225 µM (inactive) | > 225 µM (inactive) | > 225 µM (inactive) | > 225 µM (inactive) | > 225 µM (inactive) | > 225 µM (inactive) |  | > 225 µM (inactive) | > 225 µM (inactive) | > 225 µM (inactive) | > 225 µM (inactive) | > 225 µM (inactive) | > 225 µM (inactive)
COC(=O)[C@H]1C=NN[C@@H]1C(=O)N1[C@H]2CC3CC[C@@]2(CS1(=O)=O)C3(C)C | > 100 µM (inactive) | > 100 µM (inactive) | > 100 µM (inactive) | > 100 µM (inactive) |  | > 100 µM (inactive) | > 100 µM (inactive) | > 100 µM (inactive) | > 100 µM (inactive) | > 100 µM (inactive) | > 100 µM (inactive) |  | > 100 µM (inactive) | > 100 µM (inactive) | > 100 µM (inactive) | > 100 µM (inactive) | > 100 µM (inactive) | > 100 µM (inactive) | > 100 µM (inactive) | > 100 µM (inactive)
CCOC(=O)/C=C/CC(C)(C)COC(C)=O | 6.1 µM (inactive) | > 10 µM (inactive) |  | > 10 µM (inactive) | > 10 µM (inactive) | > 10 µM (inactive) | > 10 µM (inactive) | > 10 µM (inactive) | 6.98 µM (inactive) | > 10 µM (inactive) | > 10 µM (inactive) | > 10 µM (inactive) | > 10 µM (inactive) | 6.75 µM (inactive) |  |  | > 10 µM (inactive) | > 10 µM (inactive) |  | > 10 µM (inactive)
CSCC[C@@H](NC(=O)[C@H](CC(C)C)NC(=O)C(Cc1cnc[nH]1)NC(=O)CNC(=O)[C@@H](NC(=O)[C@H](C)NC(=O)[C@H](Cc1c[nH]c2ccccc12)NC(=O)[C@H](CCC(N)=O)NC(=O)[C@@H](N)CC(N)=O)C(C)C)C(N)=O (some centres undefined) | > 100 µM (inactive) | > 100 µM (inactive) | > 100 µM (inactive) | > 55.7 µM (inactive) | > 100 µM (inactive) | > 100 µM (inactive) | > 100 µM (inactive) | > 100 µM (inactive) | 99.8 µM (inactive) | > 100 µM (inactive) | > 88.7 µM (inactive) | > 100 µM (inactive) | > 100 µM (inactive) |  | > 100 µM (inactive) | > 100 µM (inactive) | > 100 µM (inactive) | > 100 µM (inactive) |  | > 100 µM (inactive)
O=C(OC1C#CCSCC#C/C=C\1)c1ccc2c(c1)C(=O)c1ccccc1C2=O (centres undefined) | 36.5 µM (inactive) | > 100 µM (inactive) | 68.5 µM (inactive) | 81.7 µM (inactive) | 11.9 µM (inactive) | 35.8 µM (inactive) | 40.7 µM (inactive) | > 100 µM (inactive) | > 100 µM (inactive) | 23.8 µM (inactive) | > 100 µM (inactive) | > 100 µM (inactive) | > 100 µM (inactive) | 65.2 µM (inactive) | 64.7 µM (inactive) | 2.79 µM (inactive) | 41.2 µM (inactive) | > 100 µM (inactive) | 37.5 µM (inactive) | 78.9 µM (inactive)
C=C1CC(OC)(C(O)C(=O)N[C@H]2OCO[C@H]3C2O[C@H](C[C@H](O)COC)C(C)(C)C3OC)O[C@H](C)[C@@H]1C (some centres undefined) | < 0.00773 µM (active) | < 0.00773 µM (active) | < 0.00773 µM (active) | < 0.00773 µM (active) | < 0.00773 µM (active) |  | < 0.00773 µM (active) | < 0.00773 µM (active) | < 0.00773 µM (active) | < 0.00773 µM (active) | < 0.00773 µM (active) | < 0.00773 µM (active) | < 0.00773 µM (active) |  | < 0.00773 µM (active) |  | < 0.00773 µM (active) | < 0.00773 µM (active) | < 0.00773 µM (active) | < 0.00773 µM (active)

Reference: ChEMBL document CHEMBL1201862, “PubChem BioAssay data set” (2004)
